This passage reports IC50 and Emax results from US20260207621A1 (Vividion Therapeutics, Inc., priority 2022, published 2026).

Each structure is given as a SMILES string.

One assay has as its target T1, KEAP1 C151 (Homo sapiens, UniProt Q14145).
T1 construct: treating 500 μg of cell lysate generated from MDA-MB-468 breast cancer cells with DMSO or compound; endogenous in cells; host or cells: MDA-MB-468 breast cancer cell lysate
Kind of assay: Nrf2 TMT measurement: in vitro TE50 for KEAP1 C151 (IA-DTB competition, targeted TMT mass spectrometry) in MDA-MB-468 cell lysate. It is filed as binding. The conditions noted are these: in vitro target engagement of KEAP1 C151, targeted TMT, read-out: KEAP1_C151 TE50. The method, boiled down: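 MDA-MB-468 lysate (500 μg) treated with compound for 1 h at room temperature, then 200 μM IA-DTB for 1 h. Labeled peptides streptavidin-enriched after trypsin digest, TMT-labeled and quantified by targeted MS3 on the KEAP1 C151 peptide. IC50 from dose-response curve fitting.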

The subject of another assay is Nrf2. Description: Nrf2 antagonism assay: ARE luciferase reporter in KYSE-70 cells. It is filed as cell-based. The settings on record: Homo sapiens, KYSE-70, KYSE-70 cells, positive Imax corresponds to Nrf2 antagonism, read-out: KYSE70 Cellular ARE Luciferase Imax (%). The method, boiled down: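 KYSE-70 esophageal squamous carcinoma cells carrying Nrf2 W24C (constitutively Nrf2-high) with an ARE-driven luciferase reporter. Loss of luciferase signal reflects Nrf2 antagonism via KEAP1 C151 engagement. IC50 and Imax come from dose-response curves; positive Imax means antagonism.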

T1 sequence (Q14145 whole entry): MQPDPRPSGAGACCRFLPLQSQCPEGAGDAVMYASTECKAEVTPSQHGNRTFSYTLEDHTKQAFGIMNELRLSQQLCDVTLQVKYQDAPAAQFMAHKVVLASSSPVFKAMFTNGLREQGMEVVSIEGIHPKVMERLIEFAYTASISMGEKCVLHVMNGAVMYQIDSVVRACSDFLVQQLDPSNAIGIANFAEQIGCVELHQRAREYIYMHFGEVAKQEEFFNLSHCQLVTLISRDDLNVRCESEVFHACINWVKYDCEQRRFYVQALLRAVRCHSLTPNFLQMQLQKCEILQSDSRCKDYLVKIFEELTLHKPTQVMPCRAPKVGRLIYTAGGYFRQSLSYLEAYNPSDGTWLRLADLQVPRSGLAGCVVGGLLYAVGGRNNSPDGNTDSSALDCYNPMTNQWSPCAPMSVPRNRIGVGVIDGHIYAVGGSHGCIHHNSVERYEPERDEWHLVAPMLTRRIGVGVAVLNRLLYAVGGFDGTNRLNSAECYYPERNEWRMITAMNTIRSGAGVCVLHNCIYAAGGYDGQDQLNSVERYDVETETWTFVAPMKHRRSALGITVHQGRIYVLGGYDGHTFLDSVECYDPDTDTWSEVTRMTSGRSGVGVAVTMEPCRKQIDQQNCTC

With `C=CC(=O)N1CCOC[C@H]1c1cc(Cl)cc(-c2nccc(N)n2)c1` (single isomer, unassigned) [Compound 96], the IC50 at KEAP1 C151 worked out at 20 nM. Further, in the assay with Nrf2, the Emax was determined as 94%.
For `C=CC(=O)N1CCOC[C@H]1c1cc(Cl)cc(-c2ccnc3[nH]ccc23)c1` (single isomer, unassigned) [Compound 97], on KEAP1 C151, the IC50 is 23 nM. In addition, the Emax in the assay on Nrf2 turned out to be 86%.
`C=CC(=O)N1CCOC[C@H]1c1cc(Cl)cc(-c2cccc(C)n2)c1` (single isomer, unassigned) [Compound 98]: the IC50 on KEAP1 C151 was 26 nM. Besides, in the assay on Nrf2, the Emax stood at 76%.
The like results for `C=CC(=O)N1CCOC[C@H]1c1cc(Cl)cc(-c2cccc(OC)n2)c1` (single isomer, unassigned) [Compound 100] were, in that order, 140 nM and 78%.
In the same order, the values of `C=CC(=O)N1CCOC[C@H]1c1cc(Cl)cc(-c2ncc(C)cn2)c1` (single isomer, unassigned) [Compound 101] are 24 nM and 87%.
Consider `C=CC(=O)N1[C@H](C)COC[C@H]1c1cc(Cl)cc(-c2ncnc(N)n2)c1` (single isomer, unassigned) [Compound 102], for which, at KEAP1 C151, the IC50 was 43.2 nM. The Emax in the assay on Nrf2 came out at 92%.
Turning to `C=CC(=O)N1CCOC[C@H]1c1cc(Cl)cc(-c2ncc(OC)cn2)c1` (single isomer, unassigned) [Compound 103], the IC50 on KEAP1 C151 turned out to be 17 nM. The Emax in the assay on Nrf2 was 85%.
Turning to `C=CC(=O)N1CCOC[C@H]1c1cc(Cl)cc(-c2cc(C)ccn2)c1` (single isomer, unassigned) [Compound 104], the IC50 at KEAP1 C151 was 45 nM. The Emax in the assay with Nrf2 was 91%.
In the case of `C=CC(=O)N1CCOC[C@H]1c1cc(Cl)cc(-c2cc(OC)ccn2)c1` (single isomer, unassigned) [Compound 105], at KEAP1 C151, the IC50 was 36 nM. In addition, the Emax in the assay on Nrf2 is 92%.
As for `C=CC(=O)N1CCOC[C@H]1c1cc(Cl)cc(-c2ccnc(C#N)n2)c1` (single isomer, unassigned) [Compound 106], at KEAP1 C151, the IC50 is 37 nM. Moreover, the Emax in the assay on Nrf2 was 67%.
The like results for `C=CC(=O)N1CCOCC1c1cc(Cl)cc(-c2cc(C(N)=O)ncn2)c1` (single isomer, unassigned) [Compound 107, 6-(3-(4-acryloylmorpholin-3-yl)-5-chlorophenyl)pyrimidine-4-carboxamide] were, in that order, 18 nM and 92%.
Turning to `C=CC(=O)N1CC(C)(C)OCC1c1cc(Cl)nc(-c2ccnc(C)n2)c1` (single isomer, unassigned) [Compound 120, 1-(5-(2-chloro-6-(2-methylpyrimidin-4-yl)pyridin-4-yl)-2,2-dimethylmorpholino)prop-2-en-1-one], on KEAP1 C151, the IC50 is 110 nM. Moreover, in the assay on Nrf2, the Emax came out at 77%.
The like results for `C=CC(=O)N1CCOCC1c1cc(Cl)nc(-c2ccnc(C)n2)c1` (single isomer, unassigned) [Compound 121, 1-(3-(2-chloro-6-(2-methylpyrimidin-4-yl)pyridin-4-yl)morpholino)prop-2-en-1-one] were, in that order, 26 nM and 82%.
In the same order, the values of `C=CC(=O)N1CC2(CC2)OCC1c1cc(Cl)cc(-c2ccnc(C(N)=O)c2)c1` (single isomer, unassigned) [Compound 122, 4-(3-(7-acryloyl-4-oxa-7-azaspiro[2.5]octan-6-yl)-5-chlorophenyl)picolinamide] are 11 nM and 88%.
With `C=CC(=O)N1CCN(S(C)(=O)=O)C[C@H]1c1cc(Cl)cc(-c2ncnc(N)n2)c1` (single isomer, unassigned) [Compound 123], the IC50 at KEAP1 C151 worked out at 13 nM. Besides, the Emax with Nrf2 was 73%.
In the case of `C=CC(=O)N1CCN(S(C)(=O)=O)C[C@H]1c1cc(Cl)cc(-c2ccnc(N)n2)c1` (single isomer, unassigned) [Compound 124], on KEAP1 C151, the IC50 was 18 nM. Besides, in the assay with Nrf2, the Emax worked out at 72%.
Consider `C=CC(=O)N1CCOCC1c1cc(Cl)nc(-c2cc(C(N)=O)ncn2)c1` (single isomer, unassigned) [Compound 125, 6-(4-(4-acryloylmorpholin-3-yl)-6-chloropyridin-2-yl)pyrimidine-4-carboxamide], for which, on KEAP1 C151, the IC50 is below 6.4 nM. Further, in the assay with Nrf2, the Emax was 91%.
Take `C=CC(=O)N1CCOC[C@H]1c1cc(Cl)cc(-c2ccncc2)c1` (single isomer, unassigned) [Compound 126]: the IC50 at KEAP1 C151 came to 50 nM. For the same molecule, in the assay with Nrf2, the Emax was found to be 72%.
Consider `C=CC(=O)N1CCOC[C@H]1c1cc(Cl)cc(-c2ccc(N)nn2)c1` (single isomer, unassigned) [Compound 128], for which, on KEAP1 C151, the IC50 amounted to 120 nM. Besides, the Emax in the assay on Nrf2 came out at 70%.
Consider `C=CC(=O)N1CCOCC1c1cc(Cl)nc(-c2cc(C#N)ncn2)c1` (single isomer, unassigned) [Compound 129, 6-(4-(4-acryloylmorpholin-3-yl)-6-chloropyridin-2-yl)pyrimidine-4-carbonitrile], for which the IC50 on KEAP1 C151 is 79 nM. In addition, in the assay with Nrf2, the Emax is 84%.
For the molecule `C=CC(=O)N1[C@H](C)COC[C@H]1c1cc(Cl)cc(-c2ncc(N)cn2)c1` (single isomer, unassigned) [Compound 130], on KEAP1 C151, the IC50 amounted to 94 nM. In addition, in the assay on Nrf2, the Emax was 89%.
As to `C=CC(=O)N1[C@H](C)COC[C@H]1c1cc(Cl)cc(-c2cc(N)ncn2)c1` (single isomer, unassigned) [Compound 131], the IC50 at KEAP1 C151 worked out at 300 nM. For the same molecule, in the assay with Nrf2, the Emax is 91%.
The like results for `C=CC(=O)N1CCOC[C@H]1c1cc(Cl)cc(-c2cc(N)cnn2)c1` (single isomer, unassigned) [Compound 132] were, in that order, below 6.4 nM and 78%.
For the molecule `C=CC(=O)N1CC(C)(C)OC[C@H]1c1cc(Cl)cc(-c2ccnc(C(N)=O)c2)c1` (single isomer, unassigned) [Compound 133], the IC50 on KEAP1 C151 came out at 72 nM. The Emax with Nrf2 worked out at 85%.
The like results for `C=CC(=O)N1[C@H](C)COC[C@H]1c1cc(Cl)cc(-c2ccnc(C(N)=O)c2)c1` (single isomer, unassigned) [Compound 134] were, in that order, 63 nM and 85%.
Regarding `C=CC(=O)N1CCOC[C@H]1c1cc(Cl)cc(-c2ccnc(N)c2)c1` (single isomer, unassigned) [Compound 136], at KEAP1 C151, the IC50 amounted to 52 nM. For the same molecule, the Emax in the assay with Nrf2 came out at 81%.
Take `C=CC(=O)N1[C@H](C)COC[C@H]1c1cc(Cl)cc(-c2ncnc3[nH]cnc23)c1` (single isomer, unassigned) [Compound 137]: on KEAP1 C151, the IC50 was 25 nM. For the same molecule, in the assay on Nrf2, the Emax was 92%.
With `C=CC(=O)N1[C@H](C)COC[C@H]1c1cc(Cl)nc(-c2ccn3ccnc3c2)c1` (single isomer, unassigned) [Compound 138], the IC50 on KEAP1 C151 turned out to be 41 nM. Besides, the Emax in the assay on Nrf2 was 75%.
The like results for `C=CC(=O)N1[C@H](C)COC[C@H]1c1cc(Cl)nc(-c2ccc(F)c(C(N)=O)c2)c1` (single isomer, unassigned) [Compound 139] were, in that order, 74 nM and 90%.
The like results for `C=CC(=O)N1CCOCC12COc1c(-c3ccc(F)c(C(N)=O)c3)cc(Cl)cc12` (single isomer, unassigned) [Compound 143, 5-(4′-acryloyl-5-chloro-2H-spiro[benzofuran-3,3′-morpholin]-7-yl)-2-fluorobenzamide] were, in that order, 770 nM and 56%.
For the molecule `C=CC(=O)N1[C@H](C)COC[C@H]1c1cc(Cl)nc(-c2ccnc(N)n2)c1` (single isomer, unassigned) [Compound 144], the IC50 at KEAP1 C151 is 83 nM. In addition, the Emax with Nrf2 is 86%.
In the same order, the values of `C=CC(=O)N1[C@H](C)COC[C@H]1c1cc(Cl)nc(-c2ccnc(C(N)=O)c2)c1` (single isomer, unassigned) [Compound 145] are 11 nM and 90%.
With `C=CC(=O)N1CCOC[C@H]1c1cc(Cl)cc(-c2ncncn2)c1` (single isomer, unassigned) [Compound 147], the IC50 at KEAP1 C151 stood at 180 nM. The Emax in the assay with Nrf2 is 74%.
In the same order, the values of `C=CC(=O)N1CC(C)(C)OC[C@H]1c1cc(Cl)cc(-c2ccnc(N)n2)c1` (single isomer, unassigned) [Compound 148] are 51 nM and 93%.
In the case of `C=CC(=O)N1CC(C)(C)OC[C@H]1c1cc(Cl)cc(-c2cc(N)ncn2)c1` (single isomer, unassigned) [Compound 149], the IC50 on KEAP1 C151 turned out to be 15 nM. For the same molecule, the Emax in the assay on Nrf2 amounted to 95%.
Turning to `C=CC(=O)N1CC(C)(C)OCC1c1cc(Cl)nc(-c2cc(N)ncn2)c1` (single isomer, unassigned) [Compound 150, 1-(5-(2-(6-aminopyrimidin-4-yl)-6-chloropyridin-4-yl)-2,2-dimethylmorpholino)prop-2-en-1-one], the IC50 at KEAP1 C151 was 31 nM. Moreover, in the assay on Nrf2, the Emax turned out to be 97%.
As to `C=CC(=O)N1CC(C)(C)OC[C@H]1c1cc(Cl)cc(-c2nccc(N)n2)c1` (single isomer, unassigned) [Compound 155], on KEAP1 C151, the IC50 was determined as 67 nM. The Emax in the assay with Nrf2 came out at 94%.
For `C=CC(=O)N1CC(C)(C)OC[C@H]1c1cc(Cl)cc(-c2ncc(N)cn2)c1` (single isomer, unassigned) [Compound 156], the IC50 at KEAP1 C151 was determined as 105 nM. In addition, in the assay on Nrf2, the Emax amounted to 94%.
`C=CC(=O)N1[C@H](CO)COC[C@H]1c1cc(Cl)nc(-c2ccn3ccnc3c2)c1` (single isomer, unassigned) [Compound 157]: the IC50 at KEAP1 C151 turned out to be 12 nM. Also, the Emax in the assay on Nrf2 was 81%.
